Experiment: Average particle size and particle distribution by dynamic light scattering (Zetasizer Nano ZS)
Type: physicochemical
Settings: for average particle size / particle distribution: DMSO as organic solvent
Description: (§1) KRN7000 was weighed in a test tube, 99.5% ethanol was added to adjust the concentration to 4 mg/mL, and the mixture was then heated to 76° C. to completely dissolve the KRN7000, so that a glycosphingolipid solution was obtained (the same applies for RCAI-56 or RCAI-61). On the other hand, inulin was weighed in a test tube, sterilized distilled water was added to adjust the concentration to 35 mg/mL, and the inulin was then completely dissolved to obtain an inulin solution. 50 μL of the glycosphingolipid solution was transferred to an additionally provided test tube, 950 μL of the inulin solution was added thereto, and quickly mixed by vortex, the mixture was left standing overnight at room temperature, and an equal amount of pure water was then added to reduce the concentration to ½. For the obtained dispersion solution, the average particle size and particle distribution were measured by a dynamic light scattering method (Zetasizer Nano ZS, Malvern). […] The final components of the glycosphingolipid hydrophilic protective colloidal solution obtained by this method, and the concentrations thereof are as follows: 0.1 mg/mL of glycosphingolipid, 17.5 mg/mL of inulin and 2.5% of ethanol.
as §1, with “pullulan” for “inulin”, “10” for “35”, “a pullulan” for “an inulin”, “glycosphingolipid” for “glycosphingolipid hydrophilic”, “5.0” for “17.5”
as §1, with “HPMC” for “inulin”, “1” for “35”, “a HPMC” for “an inulin”, “glycosphingolipid” for “glycosphingolipid hydrophilic”, “0.5” for “17.5”
Preparation of a hydrophobic colloidal solution of a glycosphingolipid using DMSO as an organic solvent was examined. KRN7000 was weighed in a test tube, DMSO was added to adjust the concentration to 2 mg/mL, and the mixture was heated to 85° C. to completely dissolve the KRN7000, so that a glycosphingolipid solution was obtained. […]

[1] = inulin, 0.4 mg/mL glycosphingolipid, 28 mg/mL inulin, 20% DMSO
[2] = Protective colloid: HPMC, 0.1 mg/mL glycosphingolipid, 0.5 mg/mL HPMC, 2.5% ethanol
[3] = Protective colloid: Inulin, 0.1 mg/mL glycosphingolipid, 17.5 mg/mL inulin, 2.5% ethanol
[4] = Protective colloid: None, glycosphingolipid dissolved in ethanol, mixed with water
[5] = Protective colloid: Pullulan, 0.1 mg/mL glycosphingolipid, 5.0 mg/mL pullulan, 2.5% ethanol

| average particle size [1] [nm] | particle distribution [1] | average particle size (protective colloid not used) | particle distribution (protective colloid not used) | Average particle size (diameter, nm) [2] [nm] | Particle size distribution [2] | Average particle size (diameter, nm) [3] [nm] | Particle size distribution [3] | Average particle size (diameter, nm) [4] [nm] | Particle size distribution [4] | Average particle size (diameter, nm) [5] [nm] | Particle size distribution [5] | Structure (SMILES) |
| --- | --- | --- | --- | --- | --- | --- | --- | --- | --- | --- | --- | --- |
| 345.5 | monodispersed particles | large average particle size | polydispersed particles | 192 | Monodispersed | 156 | Monodispersed | 1536 | Polydispersed | 149 | Monodispersed | CCCCCCCCCCCCCCCCCCCCCCCCCC(=O)N[C@@H](CO[C@H]1O[C@H](CO)[C@H](O)[C@H](O)[C@H]1O)[C@H](O)[C@H](O)CCCCCCCCCCCCCC [KRN7000, (2S,3S,4R)-1-O-(α-D-galactosyl)-N-hexacosanoyl-2-amino-1,3,4-octadecanetriol] |
| – | – | – | – | 380 | Monodispersed | 169 | Monodispersed | 435 | Polydispersed | 174 | Monodispersed | CCCCCCCCCCCCCCCCCCCCCCCCCC(=O)N[C@@H](CO[C@H]1CC(CO)[C@H](O)[C@H](O)C1O)[C@H](O)[C@H](O)CCCCCCCCCCCCCC (stereo partly shown) [RCAI-56] |
| – | – | – | – | 191 | Monodispersed | 298 | Monodispersed | 683 | Polydispersed | 151 | Monodispersed | CCCCCCCCCCCCCCCCCCCCCCCCCC(=O)N[C@@H](CO[C@H]1O[C@H](COC)[C@H](O)[C@H](O)[C@H]1O)[C@H](O)[C@H](O)CCCCCCCCCCCCCC [RCAI-61] |
